Measured values: the kinase profiling compilation of Christmann-Franck et al. (2016)

Experiments:
Test in all cases: radiometric filter-binding kinase assay
[1] = biological target: INSRR (human) (UniProt P14616)
[2] = test system: RPS6KB1 (human), P23443 [T412E]
[3] = biological target: IRAK4 (human) (UniProt Q9NWZ3)
[4] = biological target: MAP2K6 (human) (UniProt P52564)
[5] = test system: PAK2 (human), Q13177 [T402E]
[6] = test system: AKT2 (human), P31751 [S474D]
[7] = biological target: SYK (human) (UniProt P43405)
[8] = biological target: MAP2K1 (human) (UniProt Q02750)
[9] = biological target: EPHB1 (human) (UniProt P54762)
EPHB1 (human), sequence (P54762 whole entry, looked up): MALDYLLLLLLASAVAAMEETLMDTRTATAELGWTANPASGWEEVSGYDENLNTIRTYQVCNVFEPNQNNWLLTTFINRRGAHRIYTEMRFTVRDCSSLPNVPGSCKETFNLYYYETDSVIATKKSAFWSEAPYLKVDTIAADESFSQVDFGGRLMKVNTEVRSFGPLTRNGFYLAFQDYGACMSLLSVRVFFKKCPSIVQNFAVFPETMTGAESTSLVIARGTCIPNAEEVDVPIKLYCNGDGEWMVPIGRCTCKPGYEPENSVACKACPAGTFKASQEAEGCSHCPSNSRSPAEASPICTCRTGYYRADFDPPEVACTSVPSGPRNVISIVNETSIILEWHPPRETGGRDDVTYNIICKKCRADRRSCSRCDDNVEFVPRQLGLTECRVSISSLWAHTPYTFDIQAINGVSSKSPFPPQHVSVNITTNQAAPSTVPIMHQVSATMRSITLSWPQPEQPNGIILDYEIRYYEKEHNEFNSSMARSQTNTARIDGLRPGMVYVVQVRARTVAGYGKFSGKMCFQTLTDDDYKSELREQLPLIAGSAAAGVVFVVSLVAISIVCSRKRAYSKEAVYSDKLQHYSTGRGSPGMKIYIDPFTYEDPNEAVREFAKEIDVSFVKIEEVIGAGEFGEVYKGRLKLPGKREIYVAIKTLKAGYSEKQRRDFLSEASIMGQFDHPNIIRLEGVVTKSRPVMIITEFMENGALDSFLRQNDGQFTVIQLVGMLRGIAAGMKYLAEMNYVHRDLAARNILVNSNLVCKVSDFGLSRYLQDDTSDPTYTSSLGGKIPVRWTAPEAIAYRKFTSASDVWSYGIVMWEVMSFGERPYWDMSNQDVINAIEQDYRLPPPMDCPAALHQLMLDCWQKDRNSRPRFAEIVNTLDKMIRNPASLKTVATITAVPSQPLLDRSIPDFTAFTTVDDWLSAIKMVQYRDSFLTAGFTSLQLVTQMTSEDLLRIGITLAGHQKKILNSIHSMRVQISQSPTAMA

[10] = biological target: MAPK10 (human) (UniProt P53779)
[11] = biological target: PKN2 (human) (UniProt Q16513)
[12] = biological target: EPHA2 (human) (UniProt P29317)
[13] = biological target: STK11 CAB39 STRADA (human) (UniProt Q9Y376+Q7RTN6+Q15831)
[14] = biological target: DYRK3 (human) (UniProt O43781)
[15] = biological target: MAPK11 (human) (UniProt Q15759)
MAPK11 (human), sequence (Q15759 whole entry, looked up): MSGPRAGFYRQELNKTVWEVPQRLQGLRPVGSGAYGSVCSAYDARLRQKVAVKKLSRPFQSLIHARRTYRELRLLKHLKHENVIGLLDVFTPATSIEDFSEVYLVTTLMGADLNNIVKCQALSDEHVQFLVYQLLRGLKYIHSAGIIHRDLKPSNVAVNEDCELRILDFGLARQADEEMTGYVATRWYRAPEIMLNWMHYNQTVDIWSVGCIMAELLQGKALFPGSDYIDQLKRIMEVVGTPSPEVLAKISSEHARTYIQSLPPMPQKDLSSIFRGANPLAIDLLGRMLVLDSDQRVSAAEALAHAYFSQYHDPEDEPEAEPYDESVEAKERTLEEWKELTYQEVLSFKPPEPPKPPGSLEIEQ

[16] = biological target: MARK2 (human) (UniProt Q7KZI7)
[17] = biological target: PIM2 (human) (UniProt Q9P1W9)
PIM2 (human), sequence (Q9P1W9 whole entry, looked up): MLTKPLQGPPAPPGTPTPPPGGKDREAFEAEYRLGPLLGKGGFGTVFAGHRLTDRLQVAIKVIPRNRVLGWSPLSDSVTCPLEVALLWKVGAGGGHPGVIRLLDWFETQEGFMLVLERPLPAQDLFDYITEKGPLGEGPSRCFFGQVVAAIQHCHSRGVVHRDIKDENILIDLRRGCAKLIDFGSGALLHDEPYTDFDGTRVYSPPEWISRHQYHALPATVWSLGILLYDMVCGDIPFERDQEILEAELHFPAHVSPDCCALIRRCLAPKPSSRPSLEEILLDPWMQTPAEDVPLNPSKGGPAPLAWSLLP

[18] = biological target: CSNK2A1 (human) (UniProt P68400)
CSNK2A1 (human), sequence (P68400 whole entry, looked up): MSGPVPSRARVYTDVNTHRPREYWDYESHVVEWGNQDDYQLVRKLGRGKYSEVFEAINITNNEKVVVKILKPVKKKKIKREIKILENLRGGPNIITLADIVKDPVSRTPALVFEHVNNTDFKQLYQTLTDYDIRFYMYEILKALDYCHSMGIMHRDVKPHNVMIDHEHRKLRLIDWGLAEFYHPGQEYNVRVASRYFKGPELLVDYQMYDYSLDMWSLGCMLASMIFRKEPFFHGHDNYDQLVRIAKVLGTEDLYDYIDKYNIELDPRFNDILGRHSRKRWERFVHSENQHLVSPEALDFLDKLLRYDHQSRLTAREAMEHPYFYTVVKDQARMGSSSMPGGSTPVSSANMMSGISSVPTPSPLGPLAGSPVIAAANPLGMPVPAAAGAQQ

[19] = biological target: MAPK13 (human) (UniProt O15264)
[20] = test system: ROCK2 (rat); settings: accession and sequence are those of the human protein
[21] = test system: LCK (mouse); settings: accession and sequence are those of the human protein
[22] = biological target: INSR (human) (UniProt P06213)
[23] = biological target: MYLK (human) (UniProt Q15746)
MYLK (human), sequence (Q15746 whole entry, looked up): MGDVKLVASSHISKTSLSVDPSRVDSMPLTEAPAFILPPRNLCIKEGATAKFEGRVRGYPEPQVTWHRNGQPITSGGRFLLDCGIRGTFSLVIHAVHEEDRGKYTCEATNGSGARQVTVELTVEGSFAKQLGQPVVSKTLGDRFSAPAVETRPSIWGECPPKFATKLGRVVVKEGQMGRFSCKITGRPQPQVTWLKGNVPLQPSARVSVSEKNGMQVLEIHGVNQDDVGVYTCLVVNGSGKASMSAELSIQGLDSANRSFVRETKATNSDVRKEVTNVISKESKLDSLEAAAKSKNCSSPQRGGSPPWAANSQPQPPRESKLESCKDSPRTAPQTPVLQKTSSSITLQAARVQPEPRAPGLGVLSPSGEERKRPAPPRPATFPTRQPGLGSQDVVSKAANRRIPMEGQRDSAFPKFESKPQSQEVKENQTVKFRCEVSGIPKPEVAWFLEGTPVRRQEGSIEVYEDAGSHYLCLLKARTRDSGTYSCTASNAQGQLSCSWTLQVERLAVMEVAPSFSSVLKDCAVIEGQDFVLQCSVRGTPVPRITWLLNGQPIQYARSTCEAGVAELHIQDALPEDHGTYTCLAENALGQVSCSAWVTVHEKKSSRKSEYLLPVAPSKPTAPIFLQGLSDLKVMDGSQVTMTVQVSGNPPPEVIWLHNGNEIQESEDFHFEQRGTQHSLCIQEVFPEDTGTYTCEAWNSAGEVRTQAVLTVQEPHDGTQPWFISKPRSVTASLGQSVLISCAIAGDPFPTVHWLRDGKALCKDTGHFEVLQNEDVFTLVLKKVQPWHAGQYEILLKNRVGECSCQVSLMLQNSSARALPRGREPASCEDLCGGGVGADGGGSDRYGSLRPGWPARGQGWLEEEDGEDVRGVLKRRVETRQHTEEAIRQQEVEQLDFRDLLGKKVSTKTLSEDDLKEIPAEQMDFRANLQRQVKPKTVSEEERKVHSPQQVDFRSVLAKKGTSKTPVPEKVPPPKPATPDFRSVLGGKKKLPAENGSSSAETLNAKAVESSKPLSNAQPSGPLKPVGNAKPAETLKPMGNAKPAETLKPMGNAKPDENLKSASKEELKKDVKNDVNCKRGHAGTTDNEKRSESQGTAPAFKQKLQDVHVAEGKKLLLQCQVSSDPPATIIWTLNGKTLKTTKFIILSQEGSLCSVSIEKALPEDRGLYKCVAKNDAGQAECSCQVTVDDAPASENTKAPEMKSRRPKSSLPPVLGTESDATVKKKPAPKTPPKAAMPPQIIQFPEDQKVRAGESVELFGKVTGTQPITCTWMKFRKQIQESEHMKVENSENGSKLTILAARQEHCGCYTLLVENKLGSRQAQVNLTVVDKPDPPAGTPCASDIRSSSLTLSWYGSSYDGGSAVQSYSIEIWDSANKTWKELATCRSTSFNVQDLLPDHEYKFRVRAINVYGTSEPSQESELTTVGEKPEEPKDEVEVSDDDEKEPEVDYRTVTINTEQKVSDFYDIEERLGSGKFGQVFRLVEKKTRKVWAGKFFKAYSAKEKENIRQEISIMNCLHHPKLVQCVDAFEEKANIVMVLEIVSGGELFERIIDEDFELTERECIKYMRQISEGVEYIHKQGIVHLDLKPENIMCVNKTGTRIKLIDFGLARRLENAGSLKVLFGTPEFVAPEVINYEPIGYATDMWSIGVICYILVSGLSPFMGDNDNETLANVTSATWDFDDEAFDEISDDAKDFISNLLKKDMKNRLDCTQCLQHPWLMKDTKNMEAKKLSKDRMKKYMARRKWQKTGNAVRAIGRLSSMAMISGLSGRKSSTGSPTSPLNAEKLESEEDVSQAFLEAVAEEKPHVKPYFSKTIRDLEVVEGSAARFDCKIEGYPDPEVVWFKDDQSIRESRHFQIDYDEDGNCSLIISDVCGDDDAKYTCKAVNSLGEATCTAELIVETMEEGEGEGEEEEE

[24] = biological target: FGFR1 (human) (UniProt P11362)
FGFR1 (human), sequence (P11362 whole entry, looked up): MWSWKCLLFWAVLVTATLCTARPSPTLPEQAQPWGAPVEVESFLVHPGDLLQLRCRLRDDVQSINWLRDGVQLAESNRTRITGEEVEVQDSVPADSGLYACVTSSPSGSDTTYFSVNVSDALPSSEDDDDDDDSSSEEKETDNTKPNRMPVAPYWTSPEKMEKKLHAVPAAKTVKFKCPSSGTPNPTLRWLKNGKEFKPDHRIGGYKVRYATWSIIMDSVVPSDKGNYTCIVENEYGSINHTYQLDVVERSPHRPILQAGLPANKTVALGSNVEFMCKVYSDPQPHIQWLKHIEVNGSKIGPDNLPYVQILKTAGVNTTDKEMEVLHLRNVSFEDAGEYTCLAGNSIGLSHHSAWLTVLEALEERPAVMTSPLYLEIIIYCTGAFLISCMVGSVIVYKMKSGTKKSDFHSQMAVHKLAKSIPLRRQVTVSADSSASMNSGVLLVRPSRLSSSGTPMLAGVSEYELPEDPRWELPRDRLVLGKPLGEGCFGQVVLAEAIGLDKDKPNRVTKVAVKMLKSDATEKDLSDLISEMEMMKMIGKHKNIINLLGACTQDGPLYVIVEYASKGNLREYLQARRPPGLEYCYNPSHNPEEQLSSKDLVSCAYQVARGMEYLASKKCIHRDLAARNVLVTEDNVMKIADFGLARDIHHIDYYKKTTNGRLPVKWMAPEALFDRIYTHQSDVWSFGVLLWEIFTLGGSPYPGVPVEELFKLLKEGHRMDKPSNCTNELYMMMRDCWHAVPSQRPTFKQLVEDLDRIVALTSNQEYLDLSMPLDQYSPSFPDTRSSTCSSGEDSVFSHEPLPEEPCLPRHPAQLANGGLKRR

[25] = biological target: MKNK1 (human) (UniProt Q9BUB5)
[26] = biological target: NEK2 (human) (UniProt P51955)
[27] = test system: AKT1 (human), P31749 [S473D]
[28] = biological target: TTK (human) (UniProt P33981)
[29] = biological target: TBK1 (human) (UniProt Q9UHD2)
[30] = biological target: PHKG1 (human) (UniProt Q16816)
[31] = biological target: GSK3B (human) (UniProt P49841)
[32] = biological target: PIM3 (human) (UniProt Q86V86)
[33] = biological target: MAP3K9 (human) (UniProt P80192)
[34] = biological target: SRPK1 (human) (UniProt Q96SB4)
[35] = biological target: MARK1 (human) (UniProt Q9P0L2)
[36] = biological target: NEK6 (human) (UniProt Q9HC98)

SMILES: CNC(=O)C1[C@H]2O[C@@](C)([C@@H]1N)n1c3ccccc3c3c4c(c5c6ccccc6n2c5c31)C(=O)NC4 (stereo partly specified)
- residual activity ([1]; compound 0.01 µM): 47%
- residual activity ([1]; compound 0.1 µM): 12%
- residual activity ([1]; compound 1.0 µM): 9%
- residual activity ([2]; compound 0.01 µM): 37%
- residual activity ([2]; compound 0.1 µM): 6%
- residual activity ([2]; compound 1.0 µM): 3%
- residual activity ([3]; compound 0.01 µM): 7%
- residual activity ([3]; compound 0.1 µM): 7%
- residual activity ([3]; compound 1.0 µM): 4%
- residual activity ([4]; compound 0.01 µM): 10%
- residual activity ([4]; compound 0.1 µM): 13%
- residual activity ([4]; compound 1.0 µM): 5%
- residual activity ([5]; compound 0.01 µM): 71%
- residual activity ([5]; compound 0.1 µM): 19%
- residual activity ([5]; compound 1.0 µM): 4%
- residual activity ([6]; compound 0.01 µM): 109%
- residual activity ([6]; compound 0.1 µM): 51%
- residual activity ([6]; compound 1.0 µM): 8%
- residual activity ([7]; compound 0.01 µM): 21%
- residual activity ([7]; compound 0.1 µM): 6%
- residual activity ([7]; compound 1.0 µM): 2%
- residual activity ([8]; compound 0.01 µM): 9%
- residual activity ([8]; compound 0.1 µM): 0%
- residual activity ([8]; compound 1.0 µM): 0%
- residual activity ([9]; compound 0.01 µM): 41%
- residual activity ([9]; compound 0.1 µM): 56%
- residual activity ([9]; compound 1.0 µM): 25%
- residual activity ([10]; compound 0.01 µM): 65%
- residual activity ([10]; compound 0.1 µM): 30%
- residual activity ([10]; compound 1.0 µM): 26%
- residual activity ([11]; compound 0.01 µM): 21%
- residual activity ([11]; compound 0.1 µM): 8%
- residual activity ([11]; compound 1.0 µM): 6%
- residual activity ([12]; compound 0.01 µM): 92%
- residual activity ([12]; compound 0.1 µM): 53%
- residual activity ([12]; compound 1.0 µM): 19%
- residual activity ([13]; compound 0.01 µM): 103%
- residual activity ([13]; compound 0.1 µM): 50%
- residual activity ([13]; compound 1.0 µM): 35%
- residual activity ([14]; compound 0.01 µM): 24%
- residual activity ([14]; compound 0.1 µM): 4%
- residual activity ([14]; compound 1.0 µM): 2%
- residual activity ([15]; compound 0.01 µM): 108%
- residual activity ([15]; compound 0.1 µM): 96%
- residual activity ([15]; compound 1.0 µM): 79%
- residual activity ([16]; compound 0.01 µM): 11%
- residual activity ([16]; compound 0.1 µM): 5%
- residual activity ([16]; compound 1.0 µM): 4%
- residual activity ([17]; compound 0.01 µM): 93%
- residual activity ([17]; compound 0.1 µM): 30%
- residual activity ([17]; compound 1.0 µM): 4%
- residual activity ([18]; compound 0.01 µM): 106%
- residual activity ([18]; compound 0.1 µM): 108%
- residual activity ([18]; compound 1.0 µM): 80%
- residual activity ([19]; compound 0.01 µM): 100%
- residual activity ([19]; compound 0.1 µM): 97%
- residual activity ([19]; compound 1.0 µM): 48%
- residual activity ([20]; compound 0.01 µM): 82%
- residual activity ([20]; compound 1.0 µM): 7%
- residual activity ([21]; compound 0.01 µM): 44%
- residual activity ([21]; compound 0.1 µM): 13%
- residual activity ([21]; compound 1.0 µM): 3%
- residual activity ([22]; compound 0.01 µM): 120%
- residual activity ([22]; compound 0.1 µM): 76%
- residual activity ([22]; compound 1.0 µM): 11%
- residual activity ([23]; compound 0.01 µM): 48%
- residual activity ([23]; compound 0.1 µM): 4%
- residual activity ([23]; compound 1.0 µM): 1%
- residual activity ([24]; compound 0.01 µM): 53%
- residual activity ([24]; compound 0.1 µM): 22%
- residual activity ([24]; compound 1.0 µM): 3%
- residual activity ([25]; compound 0.01 µM): 61%
- residual activity ([25]; compound 0.1 µM): 16%
- residual activity ([25]; compound 1.0 µM): 9%
- residual activity ([26]; compound 0.01 µM): 105%
- residual activity ([26]; compound 0.1 µM): 105%
- residual activity ([26]; compound 1.0 µM): 66%
- residual activity ([27]; compound 0.01 µM): 93%
- residual activity ([27]; compound 0.1 µM): 44%
- residual activity ([27]; compound 1.0 µM): 5%
- residual activity ([28]; compound 0.01 µM): 37%
- residual activity ([28]; compound 0.1 µM): 13%
- residual activity ([28]; compound 1.0 µM): 7%
- residual activity ([29]; compound 0.01 µM): 22%
- residual activity ([29]; compound 0.1 µM): 16%
- residual activity ([29]; compound 1.0 µM): 12%
- residual activity ([30]; compound 0.1 µM): 1%
- residual activity ([30]; compound 1.0 µM): 1%
- residual activity ([31]; compound 0.01 µM): 51%
- residual activity ([31]; compound 0.1 µM): 15%
- residual activity ([31]; compound 1.0 µM): 7%
- residual activity ([32]; compound 0.01 µM): 17%
- residual activity ([32]; compound 0.1 µM): 10%
- residual activity ([32]; compound 1.0 µM): 10%
- residual activity ([33]; compound 0.01 µM): 3%
- residual activity ([33]; compound 0.1 µM): 2%
- residual activity ([33]; compound 1.0 µM): 2%
- residual activity ([34]; compound 0.01 µM): 89%
- residual activity ([34]; compound 0.1 µM): 53%
- residual activity ([34]; compound 1.0 µM): 11%
- residual activity ([35]; compound 0.01 µM): 11%
- residual activity ([35]; compound 0.1 µM): 5%
- residual activity ([35]; compound 1.0 µM): 5%
- residual activity ([36]; compound 0.01 µM): 87%
- residual activity ([36]; compound 0.1 µM): 89%
- residual activity ([36]; compound 1.0 µM): 72%
